Experimental data taken from patent publication US20230203043A1, “NOVEL IMIDAZOPYRAZINE DERIVATIVES” (Hoffmann-La Roche Inc., priority 2020, published 2023).
Where a name gives a salt, the structure may show the parent alone.

What follows are molecules tested on Acinetobacter baumannii ATCC17961 (assay: Antimicrobial susceptibility testing: 90% growth inhibitory concentration (IC90) determination in Iso-Sensitest broth, OD600 growth). Settings: Acinetobacter baumannii, ATCC17961, 16 h, read-out: A. baumannii ATCC 17961 IC90 (uM), strain ATCC 17961, OD600 growth over 16 h.
Type: cell-based
How it was run: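 Growth inhibition is calculated during the logarithmic phase from OD600 readings taken every 20 minutes across 16 h at 35±2° C. Bacteria at ~5×10^(5) CFU/ml face twofold dilution series (e.g. 50 to 0.097 μM final).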

| SMILES | IC90 [µM] |
| --- | --- |
| CCc1cc(Nc2nccn3c(-c4cn(CC(F)F)nc4C(F)(F)F)cnc23)ccc1C(=O)NCC(=O)NC1CC(N)C1 (stereo not drawn) [Example 642, N-[2-[(3-aminocyclobutyl)amino]-2-oxo-ethyl]-4-[[3-[1-(2,2-difluoroethyl)-3-(trifluoromethyl)pyrazol-4-yl]imidazo[1,2-a]pyrazin-8-yl]amino]-2-ethyl-benzamide formate] | 0.232 |
| CCc1cc(Nc2nccn3c(-c4cn(CC(F)F)nc4C(F)(F)F)cnc23)ccc1C(=O)NCCNC(=O)[C@@H](C)N [Example 643, (R)-N-(2-(2-aminopropanamido)ethyl)-4-((3-(1-(2,2-difluoroethyl)-3-(trifluoromethyl)-1H-pyrazol-4-yl)imidazo[1,2-a]pyrazin-8-yl)amino)-2-ethylbenzamide formate] | 0.232 |
| CCc1cc(Nc2nccn3c(-c4cn(C(C)C#N)nc4C(F)(F)F)cnc23)ccc1C(=O)NCCOCCN1CCCC1 (stereo not drawn) [Example 645, 4-((3-(1-(1-cyanoethyl)-3-(trifluoromethyl)-1H-pyrazol-4-yl)imidazo[1,2-a]pyrazin-8-yl)amino)-2-ethyl-N-(2-(2-(pyrrolidin-1-yl)ethoxy)ethyl)benzamide formate] | 0.242 |
| C[C@@H](NC(=O)c1ccc(Nc2nccn3c(-c4cn(CC#N)nc4C(F)(F)F)cnc23)cc1Cl)C(=O)N1CCNCC1 [Example 647, 2-chloro-4-[[3-[1-(cyanomethyl)-3-(trifluoromethyl)pyrazol-4-yl]imidazo[1,2-a]pyrazin-8-yl]amino]-N-[(1R)-1-methyl-2-oxo-2-piperazin-1-yl-ethyl]benzamide formate] | 0.244 |
| CCc1cc(Nc2nccn3c(-c4c[nH]nc4C(F)(F)F)cnc23)ccc1C(=O)NCCCNC(=O)[C@H](C)N [Example 652, (S)-N-(3-(2-aminopropanamido)propyl)-2-ethyl-4-((3-(3-(trifluoromethyl)-1H-pyrazol-4-yl)imidazo [1,2-a]pyrazin-8-yl)amino)benzamide formate] | 0.259 |
| N#CCn1cc(-c2cnc3c(Nc4ccc(C(=O)NCC(=O)N5CC[C@@H](N)C5)c(Cl)c4)nccn23)c(C(F)(F)F)n1 [Example 663, N-[2-[(3R)-3-aminopyrrolidin-1-yl]-2-oxo-ethyl]-2-chloro-4-[[3-[1-(cyanomethyl)-3-(trifluoromethyl)pyrazol-4-yl]imidazo[1,2-a]pyrazin-8-yl]amino]benzamide formate] | 0.285 |
| C[C@@H](NC(=O)c1ccc(Nc2nccn3c(-c4cn(CC#N)nc4C(F)(F)F)cnc23)cc1Cl)C(=O)N1CC[C@H](N)C1 [Example 665, N-[(1R)-2-[(3S)-3-aminopyrrolidin-1-yl]-1-methyl-2-oxo-ethyl]-2-chloro-4-[[3-[1-(cyanomethyl)-3-(trifluoromethyl)pyrazol-4-yl]imidazo[1,2-a]pyrazin-8-yl]amino]benzamide formate] | 0.29 |
| CCc1cc(Nc2nccn3c(-c4cn(CC(F)F)nc4C(F)(F)F)cnc23)ccc1C(=O)NCC(=O)N1CCC(N)CC1 [Example 666, N-[2-(4-amino-1-piperidyl)-2-oxo-ethyl]-4-[[3-[1-(2,2-difluoroethyl)-3-(trifluoromethyl)pyrazol-4-yl]imidazo[1,2-a]pyrazin-8-yl]amino]-2-ethyl-benzamide formate] | 0.291 |

Same assay, conditions: Acinetobacter baumannii, ATCC17961, 16 h, strain ATCC 17961, OD600 growth over 16 h, read-out: A. baumannii ATCC 17961 IC90

| SMILES | IC90 [µM] |
| --- | --- |
| C#CCn1cc(-c2cnc3c(Nc4cc(C)c(C(=O)N5CCN(C(=O)[C@H]6CC[C@H](O)N6)CC5)c(F)c4)nccn23)c(C(F)(F)F)n1 [Example 646, (4-(2-fluoro-6-methyl-4-((3-(1-(prop-2-yn-1-yl)-3-(trifluoromethyl)-1H-pyrazol-4-yl)imidazo[1,2-a]pyrazin-8-yl)amino)benzoyl)piperazin-1-yl)((2R,5S)-5-hydroxypyrrolidin-2-yl)methanone] | 0.243 |
| Cc1cc(Nc2nccn3c(-c4cn(CC(F)F)nc4C(F)(F)F)cnc23)cc(F)c1C(=O)N1CCN(C(=O)[C@H](C)N)CC1 [Example 664, (S)-2-amino-1-(4-(4-((3-(1-(2,2-difluoroethyl)-3-(trifluoromethyl)-1H-pyrazol-4-yl)imidazo [1,2-a]pyrazin-8-yl)amino)-2-fluoro-6-methylbenzoyl)piperazin-1-yl)propan-1-one] | 0.286 |

Other lines, results leading:

| IC90 [µM] | SMILES |
| --- | --- |
| 0.24 | CCc1cc(Nc2nccn3c(-c4cn(CC(O)C(F)(F)F)nc4C(F)(F)F)cnc23)ccc1C(=O)NCCOCCN (stereo not drawn) [Example 644, N-(2-(2-aminoethoxy)ethyl)-2-ethyl-4-((3-(1-(3,3,3-trifluoro-2-hydroxypropyl)-3-(trifluoromethyl)-1H-pyrazol-4-yl)imidazo [1,2-a]pyrazin-8-yl)amino) benzamide] |
| 0.246 | CCc1cc(Nc2nccn3c(-c4cn(CC(F)F)nc4C(F)(F)F)cnc23)ccc1C(=O)NCC(=O)N[C@@H]1CCNC1 [Example 648, 4-[[3-[1-(2,2-difluoroethyl)-3-(trifluoromethyl)pyrazol-4-yl]imidazo[1,2-a]pyrazin-8-yl]amino]-2-ethyl-N-[2-oxo-2-[[(3R)-pyrrolidin-3-yl]amino]ethyl] benzamide formate] |
| 0.247 | CCc1cc(Nc2nccn3c(-c4cn(CC(F)F)nc4C(F)(F)F)cnc23)ccc1C(=O)N[C@H](C)CNC(=O)[C@@H]1CCCN1 [Example 649, (S)-N-((R)-2-(4-((3-(1-(2,2-difluoroethyl)-3-(trifluoromethyl)-1H-pyrazol-4-yl)imidazo[1,2-a]pyrazin-8-yl)amino)-2-ethylbenzamido)propyl)pyrrolidine-2-carboxamide] |
| 0.252 | Cc1cc(Nc2nccn3c(-c4cn(CC(F)F)nc4C(F)(F)F)cnc23)cc(F)c1C(=O)N1CCN(C(=O)CN)CC1 [Example 650, 2-amino-1-(4-(4-((3-(1-(2,2-difluoroethyl)-3-(trifluoromethyl)-1H-pyrazol-4-yl)imidazo[1,2-a]pyrazin-8-yl)amino)-2-fluoro-6-methylbenzoyl)piperazin-1-yl)ethan-1-one] |
| 0.254 | NCC(=O)N1CC2(C1)CN(C(=O)c1ccc(Nc3nccn4c(-c5cn(CC(F)F)nc5C(F)(F)F)cnc34)cc1Cl)C2 [Example 651, 2-amino-1-(6-(2-chloro-4-((3-(1-(2,2-difluoroethyl)-3-(trifluoromethyl)-1H-pyrazol-4-yl)imidazo[1,2-a]pyrazin-8-yl)amino)benzoyl)-2,6-diazaspiro[3.3]heptan-2-yl)ethan-1-one] |
| 0.259 | Cc1cc(Nc2nccn3c(-c4cn(CC(F)F)nc4C(F)(F)F)cnc23)cc(F)c1C(=O)N[C@H](C)CNC(=O)[C@H]1[C@@H]2CNC[C@@H]21 [Example 653, (1R,5S,6r)-N-((R)-2-(4-((3-(1-(2,2-difluoroethyl)-3-(trifluoromethyl)-1H-pyrazol-4-yl)imidazo [1,2-a]pyrazin-8-yl)amino)-2-fluoro-6-methylbenzamido)propyl)-3-azabicyclo[3.1.0]hexane-6-carboxamide] |
| 0.263 | CCc1cc(Nc2nccn3c(-c4cn(CC#N)nc4C(F)(F)F)cnc23)ccc1C(=O)N[C@H](C)CNC(=O)[C@@H]1CCCN1 [Example 654, (S)-N-((R)-2-(4-((3-(1-(cyanomethyl)-3-(trifluoromethyl)-1H-pyrazol-4-yl)imidazo[1,2-a]pyrazin-8-yl)amino)-2-ethylbenzamido)propyl) pyrrolidine-2-carboxamide] |
| 0.266 | CCc1cc(Nc2nccn3c(-c4cn(CCC(C)(C)Cl)nc4C(F)(F)F)cnc23)ccc1C(=O)NCCOCCN [Example 655, N-(2-(2-aminoethoxy)ethyl)-4-((3-(1-(3-chloro-3-methylbutyl)-3-(trifluoromethyl)-1H-pyrazol-4-yl)imidazo[1,2-a]pyrazin-8-yl)amino)-2-ethylbenzamide] |
| 0.266 | N#CCn1cc(-c2cnc3c(Nc4ccc(C(=O)NCC(=O)N5CC[C@H](N)C5)c(Cl)c4)nccn23)c(C(F)(F)F)n1 [Example 656, N-[2-[(3S)-3-aminopyrrolidin-1-yl]-2-oxo-ethyl]-2-chloro-4-[[3-[1-(cyanomethyl)-3-(trifluoromethyl)pyrazol-4-yl]imidazo[1,2-a]pyrazin-8-yl]amino] benzamide formate] |
| 0.269 | NCC(=O)N1CC2(C1)CN(C(=O)c1ccc(Nc3nccn4c(-c5c[nH]nc5C(F)(F)F)cnc34)cc1Cl)C2 [Example 658, 2-amino-1-(6-(2-chloro-4-((3-(3-(trifluoromethyl)-1H-pyrazol-4-yl)imidazo[1,2-a]pyrazin-8-yl)amino)benzoyl)-2,6-diazaspiro[3.3]heptan-2-yl)ethan-1-one] |
| 0.27 | N#CCn1cc(-c2cnc3c(Nc4ccc(C(=O)N5CC6(CN(C(=O)CN)C6)C5)c(Cl)c4)nccn23)c(C(F)(F)F)n1 [Example 659, 2-(4-(8-((3-chloro-4-(6-glycyl-2,6-diazaspiro[3.3]heptane-2-carbonyl)phenyl)amino)imidazo[1,2-a]pyrazin-3-yl)-3-(trifluoromethyl)-1H-pyrazol-1-yl)acetonitrile] |
| 0.277 | N#CCn1cc(-c2cnc3c(Nc4ccc(C(=O)NCC(=O)NC5CC(N)C5)c(Cl)c4)nccn23)c(C(F)(F)F)n1 (stereo not drawn) [Example 660, N-[2-[(3-aminocyclobutyl)amino]-2-oxo-ethyl]-2-chloro-4-[[3-[1-(cyanomethyl)-3-(trifluoromethyl)pyrazol-4-yl]imidazo[1,2-a]pyrazin-8-yl]amino] benzamide formate] |
| 0.279 | CCc1cc(Nc2nccn3c(-c4cn(C5CCC5)nc4C(F)(F)F)cnc23)ccc1C(=O)NCCOCCN1CCOCC1 [Example 661, 4-((3-(1-cyclobutyl-3-(trifluoromethyl)-1H-pyrazol-4-yl)imidazo[1,2-a]pyrazin-8-yl)amino)-2-ethyl-N-(2-(2-morpholinoethoxy)ethyl) benzamide formate] |
| 0.284 | C#CCn1cc(-c2cnc3c(Nc4cc(C)c(C(=O)N[C@H](C)CN)c(F)c4)nccn23)c(C(F)(F)F)n1 [Example 662, (R)-N-(1-aminopropan-2-yl)-2-fluoro-6-methyl-4-((3-(1-(prop-2-yn-1-yl)-3-(trifluoromethyl)-1H-pyrazol-4-yl)imidazo [1,2-a]pyrazin-8-yl)amino)benzamide] |
